Laboratory results published in patent US10131652B2, “Pyrimidinyloxy benzene derivatives as herbicides” (E. I. DU PONT DE NEMOURS AND COMPANY, priority 2014, dated 2018).

What was measured:
Format in all cases: in vivo
[1] = tested on: Italian ryegrass (Lolium multiflorum); assay: Test B pre-/postemergence plant response
Procedure, shortened: (§1)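 Seeds in loam–sand blend given preemergence soil spray; separately, plants at one- to two-leaf stage (2–10 cm) sprayed postemergence, compounds in non-phytotoxic solvent with surfactant. Injury rated visually versus untreated controls after ~10 days in greenhouse, 0 (no effect) to 100 (complete control).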

[2] = tested on: giant foxtail (Setaria faberii); assay: Test B pre-/postemergence plant response
Procedure, shortened: as §1

[3] = tested on: ragweed (common ragweed, Ambrosia elatior); assay: Test B pre-/postemergence plant response
Procedure, shortened: as §1

[4] = tested on: pigweed (Amaranthus retroflexus); assay: Test B pre-/postemergence plant response
Procedure, shortened: as §1

[5] = tested on: wheat (Triticum aestivum); assay: Test B pre-/postemergence plant response
Procedure, shortened: as §1

[6] = tested on: corn (Zea mays); assay: Test B pre-/postemergence plant response
Procedure, shortened: as §1

[7] = tested on: barnyardgrass (Echinochloa crus-galli); assay: Test B pre-/postemergence plant response
Procedure, shortened: as §1

[8] = tested on: kochia (Kochia scoparia); assay: Test B pre-/postemergence plant response
Procedure, shortened: as §1

[9] = tested on: blackgrass (Alopecurus myosuroides); assay: Test B postemergence plant response
Procedure, shortened: (§2)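 Weeds grown in loam soil/sand pots were sprayed postemergence at 2 to 10 cm height, one- to two-leaf stage. After approximately 10 days in greenhouse, injury was rated visually against untreated controls on a 0 (no effect) to 100 (complete control) scale; dash means no test result.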

[10] = tested on: galium (catchweed bedstraw, Galium aparine); assay: Test B postemergence plant response
Procedure, shortened: as §2

[11] = tested on: small-flower umbrella sedge (Cyperus difformis); assay: Test C flooded paddy test plant response; conditions: Flood, 250 g ai/ha; scale of 0 to 100 where 0 is no effect and 100 is complete control; 13 to 15 days
Procedure, shortened: (§3)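 Readout is a visual 0–100 score (100 = complete control) versus controls at 13–15 days. Plants at 2-leaf stage, flooded to 3 cm, treated through paddy water.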

[12] = tested on: barnyardgrass (Echinochloa crus-galli); assay: Test C flooded paddy test plant response; conditions: Flood, 250 g ai/ha; scale of 0 to 100 where 0 is no effect and 100 is complete control; 13 to 15 days
Procedure, shortened: as §3

[13] = tested on: ducksalad (Heteranthera limosa); assay: Test C flooded paddy test plant response; conditions: Flood, 250 g ai/ha; scale of 0 to 100 where 0 is no effect and 100 is complete control; 13 to 15 days
Procedure, shortened: as §3

[14] = tested on: rice (Oryza sativa); assay: Test C flooded paddy test plant response; conditions: Flood, 250 g ai/ha; scale of 0 to 100 where 0 is no effect and 100 is complete control; 13 to 15 days
Procedure, shortened: as §3

[15] = tested on: chickweed (common chickweed, Stellaria media); assay: Test D postemergence plant response; conditions: for Chickweed plant response rating: scale 0 to 100 (0 no effect, 100 complete control); for Plant response rating, Chickweed: scale 0 to 100, 0 no effect, 100 complete control
Procedure, shortened: (§4)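 Plants grown in pots of peat moss–vermiculite medium with wetting agent and starter nutrients received postemergence applications of the formulated test chemicals at 2 to 18 cm height (1- to 4-leaf stage). After 13 to 15 days in a greenhouse, injury was scored visually against untreated controls, 0 (no effect) to 100 (complete control).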

[16] = tested on: wild oat (Avena fatua); assay: Test D postemergence plant response
Procedure, shortened: as §4

[17] = tested on: kochia (Kochia scoparia); assay: Test D postemergence plant response; conditions: for Kochia plant response rating: 31 g ai/ha, scale 0 to 100 (0 no effect, 100 complete control); for Plant response rating, Kochia: scale 0 to 100, 0 no effect, 100 complete control
Procedure, shortened: as §4

[18] = 31 g ai/ha, Preemergence, 0 to 100 scale where 0 is no effect and 100 is complete control
[19] = 125 g ai/ha, postemergence, 0 to 100 scale, 0 no effect, 100 complete control
[20] = Postemergence, 31 g ai/ha, 0 to 100 scale (0 no effect, 100 complete control)
[21] = Preemergence, 125 g ai/ha, 0 to 100 scale (0 no effect, 100 complete control)
[22] = 31 g ai/ha, scale 0 to 100 (0 no effect, 100 complete control)
[23] = 62 g ai/ha, scale 0 to 100, 0 no effect, 100 complete control
[24] = 125 g ai/ha, scale 0 to 100, 0 no effect, 100 complete control
[25] = Postemergence, 500 g ai/ha, 0 to 100 scale (0 no effect, 100 complete control)
[26] = Preemergence, 500 g ai/ha, 0 to 100 scale where 0 is no effect and 100 is complete control
[27] = 31 g ai/ha, Postemergence, 0 to 100 scale, 0 no effect, 100 complete control

FC(Cl)(Cl)c1cc(-c2ccccc2Oc2ncc(Cl)cn2)no1 [Compound 198]
Plant response rating, Ryegrass, Italian [1, 18]: 0
Plant response rating, Ryegrass, Italian [1, 19]: 50
Plant response rating, Ryegrass, Italian [1, 20]: 10
Ryegrass, Italian plant response rating [1, 21]: 20
Plant response rating, Foxtail, Giant [2, 18]: 70
Plant response rating, Foxtail, Giant [2, 19]: 90
Plant response rating, Foxtail, Giant [2, 20]: 30
Foxtail, Giant plant response rating [2, 21]: 90
Plant response rating, Ragweed [3, 18]: 0
Plant response rating, Ragweed [3, 19]: 20
Plant response rating, Ragweed [3, 20]: 10
Ragweed plant response rating [3, 21]: 10
Plant response rating, Pigweed [4, 18]: 30
Plant response rating, Pigweed [4, 19]: 100
Plant response rating, Pigweed [4, 20]: 100
Pigweed plant response rating [4, 21]: 100
Plant response rating, Wheat [5, 19]: 10
Plant response rating, Wheat [5, 20]: 0
Plant response rating, Corn [6, 19]: 20
Plant response rating, Corn [6, 20]: 10
Plant response rating, Barnyardgrass [7, 18]: 10
Plant response rating, Barnyardgrass [7, 19]: 50
Plant response rating, Barnyardgrass [7, 20]: 10
Barnyardgrass plant response rating [7, 21]: 40
Plant response rating, Kochia [8, 18]: 0
Plant response rating, Kochia [8, 19]: 80
Plant response rating, Kochia [8, 20]: 80
Kochia plant response rating [8, 21]: 30
Plant response rating, Blackgrass [9, 19]: 40
Plant response rating, Blackgrass [9, 20]: 10
Plant response rating, Galium [10, 19]: 100
Plant response rating, Galium [10, 20]: 100
Sedge, Umbrella plant response rating [11]: 100
Barnyardgrass plant response rating [12]: 40
Ducksalad plant response rating [13]: 85
Rice plant response rating [14]: 25
Plant response rating (scale 0 to 100), Chickweed ([15]; 16 g ai/ha): 5
Chickweed plant response rating ([15]; 31 g ai/ha): 60
Plant response rating, Chickweed ([15]; 62 g ai/ha): 60
Plant response rating, Chickweed ([15]; 125 g ai/ha): 95
Plant response rating (scale 0 to 100), Oat, Wild ([16]; 16 g ai/ha): 5
Oat, Wild plant response rating [16, 22]: 5
Oat, Wild plant response rating [16, 23]: 10
Plant response rating, Oat, Wild [16, 24]: 10
Plant response rating (scale 0 to 100), Kochia ([17]; 16 g ai/ha): 60
Kochia plant response rating [17]: 95
Plant response rating, Kochia ([17]; 62 g ai/ha): 100
Plant response rating, Kochia ([17]; 125 g ai/ha): 100

N#Cc1cccc(Oc2ncc(Cl)cn2)c1-c1cc(C(F)(F)F)on1 [Compound 157]
Plant response rating, Ryegrass, Italian [1, 19]: 90
Plant response rating, Ryegrass, Italian [1, 25]: 100
Ryegrass, Italian plant response rating [1, 21]: 20
Plant response rating, Ryegrass, Italian [1, 26]: 90
Plant response rating, Foxtail, Giant [2, 19]: 70
Plant response rating, Foxtail, Giant [2, 25]: 80
Foxtail, Giant plant response rating [2, 21]: 80
Plant response rating, Foxtail, Giant [2, 26]: 100
Plant response rating, Ragweed [3, 19]: 10
Plant response rating, Ragweed [3, 25]: 50
Ragweed plant response rating [3, 21]: 20
Plant response rating, Ragweed [3, 26]: 70
Plant response rating, Pigweed [4, 19]: 100
Plant response rating, Pigweed [4, 25]: 100
Pigweed plant response rating [4, 21]: 100
Plant response rating, Pigweed [4, 26]: 100
Plant response rating, Wheat [5, 19]: 50
Plant response rating, Wheat [5, 25]: 70
Plant response rating, Corn [6, 19]: 0
Plant response rating, Corn [6, 25]: 40
Plant response rating, Barnyardgrass [7, 19]: 20
Plant response rating, Barnyardgrass [7, 25]: 60
Barnyardgrass plant response rating [7, 21]: 20
Plant response rating, Barnyardgrass [7, 26]: 80
Plant response rating, Kochia [8, 19]: 90
Plant response rating, Kochia [8, 25]: 100
Kochia plant response rating [8, 21]: 100
Plant response rating, Kochia [8, 26]: 100
Plant response rating, Blackgrass [9, 19]: 70
Plant response rating, Blackgrass [9, 25]: 90
Plant response rating, Galium [10, 19]: 100
Plant response rating, Galium [10, 25]: 100
Sedge, Umbrella plant response rating [11]: 40
Barnyardgrass plant response rating [12]: 0
Ducksalad plant response rating [13]: 40
Rice plant response rating [14]: 0
Plant response rating (scale 0 to 100), Chickweed ([15]; 4 g ai/ha): 5
Plant response rating (scale 0 to 100), Chickweed ([15]; 8 g ai/ha): 10
Chickweed plant response rating ([15]; 16 g ai/ha): 50
Chickweed plant response rating ([15]; 31 g ai/ha): 75
Plant response rating (scale 0 to 100), Oat, Wild ([16]; 4 g ai/ha): 0
Plant response rating (scale 0 to 100), Oat, Wild ([16]; 8 g ai/ha): 0
Oat, Wild plant response rating [16, 22]: 10
Plant response rating (scale 0 to 100), Kochia ([17]; 4 g ai/ha): 0
Plant response rating (scale 0 to 100), Kochia ([17]; 8 g ai/ha): 20
Kochia plant response rating [17]: 90

Fc1cccc(Oc2ncc(Cl)cn2)c1-c1cc(C2CC2)on1 [Compound 130]
Plant response rating, Ryegrass, Italian [1, 18]: 20
Plant response rating, Ryegrass, Italian [1, 19]: 60
Ryegrass, Italian plant response rating [1, 21]: 50
Plant response rating, Foxtail, Giant [2, 27]: 50
Plant response rating, Foxtail, Giant [2, 18]: 90
Plant response rating, Foxtail, Giant [2, 19]: 80
Foxtail, Giant plant response rating [2, 21]: 100
Plant response rating, Ragweed [3, 18]: 10
Plant response rating, Ragweed [3, 19]: 60
Ragweed plant response rating [3, 21]: 20
Plant response rating, Pigweed [4, 18]: 100
Plant response rating, Pigweed [4, 19]: 100
Pigweed plant response rating [4, 21]: 100
Plant response rating, Wheat [5, 19]: 40
Plant response rating, Corn [6, 27]: 20
Plant response rating, Corn [6, 19]: 40
Plant response rating, Barnyardgrass [7, 27]: 40
Plant response rating, Barnyardgrass [7, 18]: 50
Plant response rating, Barnyardgrass [7, 19]: 100
Barnyardgrass plant response rating [7, 21]: 90
Plant response rating, Kochia [8, 18]: 50
Plant response rating, Kochia [8, 19]: 90
Kochia plant response rating [8, 21]: 70
Plant response rating, Blackgrass [9, 27]: 50
Plant response rating, Blackgrass [9, 19]: 80
Plant response rating, Galium [10, 19]: 90
Sedge, Umbrella plant response rating [11]: 90
Barnyardgrass plant response rating [12]: 65
Ducksalad plant response rating [13]: 90
Rice plant response rating [14]: 30
Chickweed plant response rating ([15]; 16 g ai/ha): 80
Chickweed plant response rating ([15]; 31 g ai/ha): 80
Plant response rating, Chickweed ([15]; 62 g ai/ha): 80
Plant response rating, Chickweed ([15]; 125 g ai/ha): 95
Oat, Wild plant response rating [16, 22]: 15
Plant response rating, Oat, Wild [16, 23]: 35
Plant response rating, Oat, Wild [16, 24]: 60
Kochia plant response rating [17]: 95
Plant response rating, Kochia ([17]; 62 g ai/ha): 100
Plant response rating, Kochia ([17]; 125 g ai/ha): 100
